Test systems include HOP-62 NSCLC; SW-620 colon; LOX IMVI melanoma; HOP-92 NSCLC; HL-60(TB) leukemia; A498 renal; UO-31 renal; U251 CNS; SR leukemia.
What all share (assay): NCI-60 cell line screen, 48 h

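Compound exposure: 48 hours, 5 concentrations, 96-well plates. GI50 is the concentration that inhibits growth by half. TGI: total growth inhibition.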

As to `CN1c2ccccc2N(C(=O)c2ccc([N+](=O)[O-])cc2)C(CC(=O)O)c2cccn21` (stereo not drawn), the TGI in the test on HOP-62 NSCLC, in the test on SW-620 colon, in the test on LOX IMVI melanoma, in the test with HOP-92 NSCLC, in the test on HL-60(TB) leukemia and in the test on A498 renal was more than 100 µM in each case. This compound also showed a TGI in the test on UO-31 renal of more than 100 µM.
On to `Cn1c2c(c3ccccc31)CCN(CCCCN1CCCCC1)C2=O`, for which the TGI with HOP-62 NSCLC, in the test with SW-620 colon, in the test on HOP-92 NSCLC, in the test with HL-60(TB) leukemia, with U251 CNS and in the test with A498 renal was more than 100 µM throughout. This compound had a TGI in the test with UO-31 renal of more than 100 µM.
Take `Cc1c(Cl)cccc1NC(=O)C(=O)C(C(=O)c1ccccc1-c1ccccc1)C1OC(=O)c2ccccc21` (stereo not drawn): the TGI in the test on HOP-62 NSCLC stood at 35.5 µM; with SW-620 colon, 49 µM; in the test on LOX IMVI melanoma, 39.5 µM; in the test on HOP-92 NSCLC, 34.4 µM; in the test with HL-60(TB) leukemia it was 49.8 µM; in the test with U251 CNS, 29.2 µM. In the test on UO-31 renal, this compound had a TGI of 49.4 µM.
As for `COC(=O)CCC(NC(=S)N/N=C(\C)c1cnc2ccccc2n1)C(=O)OC` (stereo not drawn), the TGI with HOP-62 NSCLC is more than 100 µM; in the test with SW-620 colon, more than 100 µM; in the test on LOX IMVI melanoma, 66.3 µM; with HL-60(TB) leukemia, 9.3 µM; with U251 CNS, more than 100 µM; with SR leukemia, 42.8 µM. Besides, the TGI in the test on A498 renal and in the test on UO-31 renal was more than 100 µM in each case.
With `CN1C(=O)CCC1(O)C1C=CC=CC1` (stereo not drawn), the TGI with HOP-62 NSCLC, in the test with SW-620 colon, in the test on LOX IMVI melanoma, in the test with HL-60(TB) leukemia, in the test with U251 CNS and with SR leukemia was more than 100 µM throughout. The compound also had a TGI in the test with UO-31 renal of more than 100 µM.
Consider `COC(=O)C(C(=O)C(=O)Nc1c(C)cccc1C)c1cnc2ccccc2n1` (stereo not drawn), for which the TGI with SW-620 colon, in the test on LOX IMVI melanoma, with HOP-92 NSCLC, with HL-60(TB) leukemia, in the test with U251 CNS and in the test with SR leukemia was more than 100 µM each time. Besides, the TGI with A498 renal and with UO-31 renal was more than 100 µM each time.
Take `CN(C)C=Nc1ccn(CCO)c(=O)n1`: the TGI in the test on HOP-62 NSCLC, with SW-620 colon, in the test on LOX IMVI melanoma, in the test with HL-60(TB) leukemia, with U251 CNS and in the test on SR leukemia was more than 100 µM in each case. Besides, the TGI in the test with A498 renal and with UO-31 renal was more than 100 µM throughout.
As for `Cc1cc(NCCCCCCCCNc2cc(C)nc3cc(N)ccc23)c2ccc(N)cc2n1`, the TGI in the test on HOP-62 NSCLC was 75.1 µM; in the test with LOX IMVI melanoma, 40.1 µM; in the test with HL-60(TB) leukemia, 4.88 µM; in the test with U251 CNS, 24.3 µM; in the test with SR leukemia, more than 100 µM; in the test with A498 renal it was more than 100 µM. The same compound came in with a TGI in the test with UO-31 renal of more than 100 µM.
`C/C(=C1/N=C(c2cc([N+](=O)[O-])ccc2Cl)N(c2cccc(C)c2)C1=O)c1cc2ccccc2oc1=O`: the TGI was more than 100 µM in the test with HOP-62 NSCLC; more than 100 µM in the test with SW-620 colon; 37.1 µM in the test on LOX IMVI melanoma; more than 100 µM in the test on HOP-92 NSCLC; more than 100 µM with HL-60(TB) leukemia; more than 100 µM in the test with SR leukemia. For the same compound, the TGI in the test on A498 renal and in the test on UO-31 renal was more than 100 µM each time.
Turning to `CCOC(=O)/C(=C/N1CCN(C(=O)c2ccco2)C1=S)C(=O)c1ccccc1`, the GI50 with HOP-62 NSCLC is 17.3 µM; in the test on SW-620 colon it was 7.93 µM; in the test on LOX IMVI melanoma, 6.48 µM; in the test on HOP-92 NSCLC, 23 µM; in the test on HL-60(TB) leukemia, 14.9 µM; in the test on U251 CNS, 11.5 µM. Also, the GI50 was 2.35 µM with SR leukemia and 9.99 µM in the test with UO-31 renal. For the same compound, the TGI in the test on HOP-62 NSCLC was more than 50 µM; in the test on SW-620 colon, 24 µM; in the test with LOX IMVI melanoma, 14.2 µM; with HOP-92 NSCLC, more than 50 µM; with HL-60(TB) leukemia, 31 µM; with U251 CNS, more than 50 µM. Besides, the TGI was determined as 16.4 µM in the test with SR leukemia and 19.3 µM in the test on UO-31 renal.
For `N.N.N.N.N.[Co+3].[I-].[N-]=[N+]=[N-]`, the GI50 in the test on HOP-62 NSCLC, in the test with SW-620 colon, in the test on LOX IMVI melanoma, in the test on HOP-92 NSCLC, in the test on U251 CNS and in the test on A498 renal was more than 100 µM throughout. Further, in the test on UO-31 renal, the GI50 is more than 100 µM. The TGI in the test on HOP-62 NSCLC, in the test with SW-620 colon, in the test on LOX IMVI melanoma, with HOP-92 NSCLC, with U251 CNS and in the test on A498 renal was more than 100 µM throughout. The same compound came in with a TGI in the test with UO-31 renal of more than 100 µM.
Turning to `N#Cc1c(-c2ccc(Cl)c(Cl)c2)c(-c2ccc(Cl)c(Cl)c2)nn(CC(=O)O)c1=O`, the TGI with HOP-62 NSCLC, in the test on SW-620 colon, in the test on LOX IMVI melanoma, in the test on HOP-92 NSCLC, with HL-60(TB) leukemia and with U251 CNS was more than 100 µM throughout. The compound further came in with a TGI in the test with UO-31 renal of more than 100 µM.
For the compound `N#CCCN(c1ccc(C=Nc2ccccc2)cc1)S(=O)(=O)c1ccccc1`, the TGI with HOP-62 NSCLC, in the test on SW-620 colon, with HOP-92 NSCLC, in the test on HL-60(TB) leukemia, in the test on SR leukemia and in the test with A498 renal was more than 100 µM each time. Besides, the TGI in the test on UO-31 renal was more than 100 µM.
Consider `O=C1C2Nc3ccccc3SC2C(=O)N1c1ccc(Br)cc1` (stereo not drawn), for which the TGI was 55.1 µM with HOP-62 NSCLC; more than 100 µM in the test on SW-620 colon; more than 100 µM with LOX IMVI melanoma; 33.2 µM in the test with HOP-92 NSCLC; 82.5 µM with A498 renal; 68.2 µM in the test on UO-31 renal.
Regarding `C[C@@H](NC1CCCC[C@H]1O)c1ccccc1` (stereo partly drawn), the TGI in the test with HOP-62 NSCLC, in the test with SW-620 colon, with LOX IMVI melanoma, with HOP-92 NSCLC, in the test with HL-60(TB) leukemia and in the test with U251 CNS was more than 100 µM throughout. Moreover, the TGI with A498 renal and in the test on UO-31 renal was more than 100 µM each time.
Regarding `Cc1nc(-n2nc(-c3ccccc3)cc2-c2ccccc2)sc1C(=O)/C=C/c1ccc(/C=C/C(=O)c2sc(-n3nc(-c4ccccc4)cc3-c3ccccc3)nc2C)cc1`, the TGI with HOP-62 NSCLC is 54.2 µM; in the test on SW-620 colon, more than 100 µM; in the test with LOX IMVI melanoma it was 40.6 µM; in the test with HL-60(TB) leukemia, more than 100 µM; in the test with U251 CNS it was 34.3 µM; in the test on SR leukemia, 72.4 µM. In addition, in the test with UO-31 renal, the TGI came out at 42 µM.
Regarding `CN(CCN1C(=O)c2cc([N+](=O)[O-])cc3cc([N+](=O)[O-])cc(c23)C1=O)CCN1C(=O)c2cc([N+](=O)[O-])cc3cc([N+](=O)[O-])cc(c23)C1=O`, the TGI in the test on HOP-62 NSCLC was more than 100 µM; in the test on SW-620 colon, 16.7 µM; with LOX IMVI melanoma, 1.44 µM; with HOP-92 NSCLC, 2.2 µM; with HL-60(TB) leukemia it was 0.536 µM; in the test with U251 CNS, more than 100 µM. In addition, the TGI was more than 100 µM in the test on A498 renal and more than 20.8 µM in the test on UO-31 renal.
In the case of `Nc1ncnc2c1ncn2[C@]1(CO)C=C(CO)C(O)C1O` (stereo partly drawn), the TGI in the test with HOP-62 NSCLC, in the test with SW-620 colon, in the test with LOX IMVI melanoma, with HOP-92 NSCLC, in the test on HL-60(TB) leukemia and with U251 CNS was more than 100 µM throughout. In addition, the TGI with SR leukemia and with A498 renal was more than 100 µM throughout.
As to `COc1ccc(NC(=O)C(=O)c2c(O)c3ccc(O)cc3oc2=O)c([N+](=O)[O-])c1`, the TGI in the test on SW-620 colon, in the test on LOX IMVI melanoma, in the test with HOP-92 NSCLC, in the test with HL-60(TB) leukemia, in the test with A498 renal and in the test on UO-31 renal was more than 100 µM each time.
As for `Cc1cn(C2CC(O)C(COC(=O)c3ccccc3)O2)c(=O)[nH]c1=O` (stereo not drawn), the TGI in the test with HOP-62 NSCLC, with SW-620 colon, in the test with LOX IMVI melanoma, in the test with HOP-92 NSCLC, in the test with HL-60(TB) leukemia and with U251 CNS was more than 100 µM each time. In addition, the TGI with SR leukemia and with A498 renal was more than 100 µM throughout.
Turning to `COc1ccc(C/C(=N/O)C(=O)NCCc2cc(Br)c(OCCCN(C)C)c(Br)c2)cc1Br`, the TGI with HOP-62 NSCLC is 30 µM; in the test with SW-620 colon, 31.8 µM; in the test with LOX IMVI melanoma, 30.1 µM; with HL-60(TB) leukemia, 28.1 µM; with U251 CNS it was 32.8 µM; with UO-31 renal, 42.3 µM.
Regarding `O=C(N/C(=C\c1ccc(Cl)cc1)c1nc2ccccc2[nH]1)c1ccccc1`, the TGI in the test on SW-620 colon came out at 64 µM; with LOX IMVI melanoma, 31.5 µM; with HOP-92 NSCLC, 33.6 µM; with U251 CNS it was 53.1 µM; in the test with A498 renal, 52.4 µM; in the test on UO-31 renal it was 42.2 µM.
`CCCCCN(CCCCC)C(=O)[C@@H](CCC(=O)O)NC(=O)c1cc2ccccc2[nH]1`: the TGI with HOP-62 NSCLC is 87.7 µM; in the test on SW-620 colon, more than 100 µM; in the test on LOX IMVI melanoma, more than 100 µM; in the test on HOP-92 NSCLC, 67.8 µM; in the test on HL-60(TB) leukemia it was 41.2 µM; with U251 CNS, 78.1 µM. The TGI is more than 100 µM in the test with A498 renal and 79.9 µM in the test with UO-31 renal.
Consider `Cn1cc(C(=O)c2ccccc2)c2ccccc2c1=O`, for which the TGI is 71.8 µM with HOP-62 NSCLC; more than 100 µM with SW-620 colon; more than 100 µM in the test with LOX IMVI melanoma; more than 100 µM in the test on HOP-92 NSCLC; more than 100 µM with HL-60(TB) leukemia; more than 100 µM in the test with SR leukemia.

The values above are taken from PubChem BioAssay (NCI).
